The values that follow come from US20240139178A1, “METHOD FOR MANUFACTURING COMPOSITION FOR COMPOSITION FOR INCREASING COGNITIVE FUNCTION” (priority 2018, published 2024).

Assay [1] addresses T1, Aβ1-42 (Homo sapiens, UniProt P05067).
T1 construct: human A81-42 monomers (UniProtKB-P05067, a.a. 672-713)
Description: Aβ aggregation inhibition test (Thioflavin T analysis). To be noted: for Aβ aggregation degree compared to the control / amyloid aggregation inhibition effect compared to the control: 2 μM compound, Aβ1-42 50 μM; for Aβ aggregation degree compared to the control: 37° C. 72 hours, control = 100%; for amyloid aggregation inhibition effect compared to the control: 72 hours; for Aggregation (%): 20 μM compound, 50 μM Aβ, 3 days, relative to control (100%). The assay is classed as biochemical. As to the method: Then, the compound was used diluted by using 6% DMSO (in DW) and used.
Triflupromazine hydrochloride (triflupromazine used in all the examples below is triflupromazine hydrochloride) was dissolved to a concentration of 5 mM in DMSO. The compound was then used diluted with 6% DMSO (in DW).
The Aβ solution was prepared by dissolving human A81-42 monomers (UniProtKB-P05067, a.a. 672-713) to 10 mM concentration in DMSO. Thereafter, the mixture was diluted to 100 uM by using DW and stored on ice.
On the other hand, Thioflavin-T (Sigma-Aldrich) was dissolved to the concentration of 5 mM in 50 mM glycine buffer (pH 8.5). Then, the resultant solution was diluted to the concentration of 50 μM by using 50 mM glycine buffer (pH 8.5) and stored in the dark while light was blocked.
(§1) 25 μL of the reaction solution in which the reaction was completed was added to each well of a 96-well fluorescence assay plate, and 75 μL of the Thioflavin-T solution prepared above was added to each well. After reacting for 5 minutes in the dark at room temperature, fluorescence values were measured at excitation 450 nm and emission 485 nm by using a multi-mode microplate reader.
The fluorescence value of the group (control) treated with Aβ alone and aggregated for 72 hours was considered as 100%, and the measured fluorescence values were expressed as a relative value thereto, and results thereof are shown in FIG. 1 and FIG. 2.
In addition, by performing the same test as described above for 20 μM of various compounds using 50 μM Aβ, the degree of Aβ aggregation was measured, and the result is expressed as a relative value for control (100%).

Assay [2] deals with T1, Aβ1-42. Briefly: Aβ disaggregation test of rifamycin-based derivatives by Thioflavin T analysis. The assay is classed as biochemical. To be noted: 50 μM compound, 50 μM Aβ1-42 aggregated 3 days, then 2 days of reaction. Here is the method: (§2) The compound was then used diluted with 6% DMSO (in DW).
(§3) The Aβ solution was prepared by dissolving Aβ 1-42 monomers to the concentration of 10 mM in DMSO. Thereafter, the mixture was diluted to 100 μM by using DW and stored on ice.
(§4) On the other hand, Thioflavin-T was dissolved to the concentration of 5 mM in 50 mM glycine buffer (pH 8.5). Then, the resultant solution was diluted to the concentration of 50 μM by using 50 mM glycine buffer (pH 8.5) and stored in the dark while light was blocked.
The Aβ solution prepared in Example 3.1. was placed in 1.5 mL microcentrifuge tubes, each having 50 μM of the Aβ solution, and then reacted at 37° C. for 72 hours.
Each 1.5 mL microcentrifuge tube was treated with 50 μM rifapentine-based derivatives, followed by reaction at 37° C. for 48 hours.
as §1
The fluorescence value of the group (control) treated with Aβ alone and aggregated for 72 hours by treating only Aβ was considered as 100%, and the measured fluorescence values were expressed as a relative value thereto, and results thereof are shown in FIG. 7.

Assay [3] concerns the target T1, Aβ1-42. Briefly: Aβ disaggregation test by Thioflavin T analysis. The assay is classed as biochemical. The note with it: for amyloid disaggregation effect: Aβ1-42 25 μM; for degree of Aβ aggregation compared to the control: Aβ1-42 25 μM pre-aggregated 72 hours, then 72 hours. As to the method: as §2
Triflupromazine hydrochloride was dissolved to the concentration of 5 mM in DMSO. The compound was then used diluted with 6% DMSO (in DW).
as §3, §4
The Aβ solution prepared in Example 2.1. was placed in 1.5 mL microcentrifuge tubes, each having 25 μM of the Aβ solution, and then reacted at 37° C. for 72 hours.
as §1
The fluorescence value of the group (control) treated with Aβ alone and aggregated for 72 hours was considered as 100%, and the measured fluorescence values were expressed as a relative value thereto, and results thereof are shown in FIG. 3 and FIG. 4.

In a further assay the target is T2, Aβ42 (Homo sapiens, UniProt P05067).
T2 construct: human A81-42 monomers (UniProtKB-P05067, a.a. 672-713)
T2 sequence (P05067 672-713): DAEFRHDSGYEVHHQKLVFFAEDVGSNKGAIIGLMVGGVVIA
Briefly: Aβ disaggregation test by SDS-PAGE analysis (PICUP). The assay is classed as biochemical. The note with it: 25 μM Aβ aggregated 3 days, 50 μM or 500 μM compound, further 3 days. As to the method: In order to confirm Aβ disaggregation in the sample prepared in Example 2.1, SDS-PAGE analysis was performed as follows.
In detail, the stock of ammonium persulfate (APS; 200 mM)and tris (2,2′-bipyridyl)dichlororuthenium (II) hexahydrate (Ru; 10 mM) was prepared in an amber tube (Axygen, MCT-150-X) by using a photo-induced cross-linking of unmodified proteins (PICUP) buffer (0.1 M sodium phosphate (pH 7.4)). The stock was diluted 10-fold in PICUP buffer (APS: 20 mM/Ru: 1 mM). 10 μL of each sample prepared in Example 2.1 was dispensed at the bottom of a 0.5 mL tube (Axygen, PCR-05-C). 1 μL of APS (20 mM) was dispensed on the tube wall and 1 μL of Ru (1 mM) on the tube cap. At this time, in order to prevent the reaction from proceeding, the sample was not mixed with APS and Ru. After closing the tube cap and spin down using a centrifuge, the tube was removed from the centrifuge and exposed to light 3 times per second using an incandescent lamp. 3 μL of 5× reducing sample buffer (w/5% β-mercaptoethanol) was added to each tube. Samples were heated at 95-100° C. for 5 minutes and then cooled on ice.
Then, the PICUP-treated samples were loaded on 4-20% (w/v) tris/glycine gel and electrophoresed at 100V for 1 hour and 30 minutes. After electrophoresis, the gel was separated and confirmed by silver staining.

For another assay, the system named is APP/PS1 TG mice. Briefly: Y-maze test. The assay is classed as in vivo. The note with it: 8th week after oral administration; compared to TG-Veh and WT-Veh. An excerpt:
(§5) Transgenic mice (APP/PS1 TG; Alzheimer' disease animal model; B6C3-Tg(APPswe, PSEN1dE)85Dbo/Mmjax) and wild type mice were derived from Jackson Laboratory (Bar Harbor, Maine, USA). APP/PS1 TG mice crossed with wild-type mice and maintained as double hemizygotes. All genotypes were confirmed by PCR analysis using tail DNA according to the standard PCR conditions of the Jackson Laboratory. Each mouse was housed in a plastic cage in the animal cage and the temperature of the plastic cage was maintained at 21±1° C. in alternating 12 hour light cycle, and the mice were freely fed with food and water.
The control group received the same amount of vehicle (0.5% MC in DW).
Y-maze test was performed using a maze structure made by placing the same three arms 40 cm in length (15 cm in height of the wall) at an angle of 120 degrees. […] The search time was 8 minutes per subject, and the final result was expressed as a spontaneous alteration (%) value. Spontaneous alteration (%) value was calculated by the following formula. […]
Behavioral patterns were analyzed using SMART VIDEO TRACKING Software (Panlab, USA). All data obtained in the experiments were expressed as mean±standard error mean (SEM), and the drug-applied group was compared with the non-drug group, which was a control, by using student's t-test.

In assay [4] the test system is Total Tau (T-Tau) and phosphorylated Tau (P-Tau). Description: Western blot of total and phosphorylated Tau in brain tissue after oral triflupromazine. The assay is classed as in vivo, mice.
Text: as §5, with “(5×FAD; Alzheimer's” for “(APP/PS1 TG; Alzheimer'”, “B6SJL-Tg (APPSwFILon, PSEN1*M146L*L286V)6799Vas/Mmjax))” for “B6C3-Tg(APPswe, PSEN1dE)85Dbo/Mmjax)”, “wild-type” for “wild type”, “obtained” for “derived”, “5× FAD” for “APP/PS1 TG”, “Four to six mice were” for “Each mouse was”
(§6) Seven-month old 5× FAD mice were orally treated with 50 mg/kg of triflupromazine once every two days for 3 weeks. The control received the same amount of vehicle (1% (w/v) DMSO in PBS).
Mice were anesthetized using 2%(w/v) avertin (20 mg/g, i.p.). The mice were perfused with 0.9%(w/v) NaCl and brains thereof were excised. The hemibrains were fixed overnight at 4° C. in 4° /0(w/v) paraformaldehyde (pH 7.4). For cryopreservation, brains were soaked in 30%(w/v) sucrose for 48 hours. The other hemibrains were dissected into cortical and hippocampal regions and homogenized on ice for 30 minutes in lysis buffer (10 mM Tris-HCl, 5 mM EDTA in 320 mM sucrose, pH 7.4) containing 1× protease inhibitor cocktail. The sample was centrifuged at 13500 rpm for 30 minutes at 4° C. The lysate concentration was measured using the BCA protein assay kit (thermoFisher, cat #232250) according to the manufacturer's instructions. The absorbance was read at 560 nm.
Changes in Tau, a major cause of Alzheimer's dementia and Parkinson's disease, together with Aβ plaques, were confirmed by Western blot analysis. Samples of the prepared tissues were separated by SDS-PAGE and transferred to PVDF membrane. The membrane was treated overnight at 4° C. using the primary antibody. As the primary antibody, antibodies capable of detecting Total Tau (T-Tau) and phosphorylated Tau (P-Tau) were used, and detection was performed using a secondary antibody conjugated with horseradical peroxidase (HRP). The blot development was performed with a Clarity Western ECL substrate (Bio-Rad) according to the manufacturer's instructions.
On the other hand, in wild type mice (Wt), a decrease in total Tau (T-Tau) and phosphorylated Tau (P-Tau) was not observed.
(In western blotting, separated proteins are transferred to a membrane and probed.)

The test system of another assay is 5× FAD mice. Briefly: Amyloid plaque reduction by oral triflupromazine, Thioflavin S staining. The assay is classed as in vivo. The note with it: oral 50 mg/kg once every two days for 3 weeks; vs vehicle control mice.
Text: as §5, with “(5×FAD; Alzheimer's” for “(APP/PS1 TG; Alzheimer'”, “B6SJL-Tg (APPSwFILon, PSEN1*M146L*L286V)6799Vas/Mmjax))” for “B6C3-Tg(APPswe, PSEN1dE)85Dbo/Mmjax)”, “wild-type” for “wild type”, “obtained” for “derived”, “5× FAD” for “APP/PS1 TG”, “Four to six mice were” for “Each mouse was”
as §6
Mice were anesthetized using 2%(w/v) avertin (20 mg/g, i.p.). The mice were perfused with 0.9%(w/v) NaCl and brains thereof were excised. […] The lysate concentration was measured using the BCA protein assay kit (thermoFisher, cat #232250) according to the manufacturer's instructions. The absorbance was read at 560 nm.
To stain frozen brain with thioflavin S (ThS), the brain was cut to 35 um thickness to create tissue sections using cryostat (Leica CM1800) and then Aβ plaques were stained. […] Images were obtained using a Leica DM2500 fluorescence microscope.

Setting [5] is: 5× FAD (Tg) mice, cortex and hippocampus tissue, oral 50 mg/kg once every two days for 3 weeks, vs Tg veh.

T1 sequence (P05067 672-713): as above

Consider `CO[C@H]1/C=C/O[C@@]2(C)Oc3c(C)c(O)c4c(O)c(c(/C=N/N5CCN(C6CCCC6)CC5)c(O)c4c3C2=O)NC(=O)/C(C)=C\C=C\[C@H](C)[C@H](O)[C@@H](C)[C@@H](O)[C@@H](C)[C@H](OC(C)=O)[C@@H]1C` [rifapentine, 3-[[(4-cyclopentyl-1-piperazinyl)imino]methyl]-rifamycin], for which, at Aβ1-42 [1], the “Aβ aggregation degree compared to the control” value is at most 40%, the “amyloid aggregation inhibition effect compared to the control” value is reported as at least 60% and the “Aggregation (%)” value was 13.35%. At Aβ1-42 [2], the “Aβ disaggregation effect compared to the control” value is recorded as at least 90% and the “degree of Aβ aggregation compared to the control” value is at most 10%. Also, on Aβ1-42 [3] (50 μM compound), the amyloid disaggregation effect is given as at least 90% and the “degree of Aβ aggregation compared to the control” value is reported as at most 10%. Further, at Aβ1-42 [3] (500 μM compound), the amyloid disaggregation effect is listed as at least 99% and the “degree of Aβ aggregation compared to the control” value was at most 1%. On Aβ42, the “Aβ disaggregation (bands of aggregated Aβ fibrils and dimers)” value is given as “concentration-dependent Aβ disaggregation activity”. In the assay with APP/PS1 TG mice, the “spontaneous alteration (%)” value is listed as “increased closer to the positive control group (WT-Veh)”.
Consider `CN(C)CCCN1c2ccccc2Sc2ccc(C(F)(F)F)cc21` [triflupromazine, dimethyl ({3-[2-(trifluoromethyl)-10H-phenothiazin-10-yl]propyl})amine], for which, in assay [4] (setting [5]), the “P-Tau (phosphorylated Tau)” value is “decreased” and the “T-Tau (Total Tau)” value is “decreased”. Also, in assay [4] (wild type mice (Wt)), the “decrease in phosphorylated Tau (P-Tau)” value was “not observed” and the “decrease in total Tau (T-Tau)” value is “not observed”. For the same compound, at Aβ1-42 [1], the “Aβ aggregation degree compared to the control” value is listed as at most 70%, the “amyloid aggregation inhibition effect compared to the control” value is at least 30% and the “Aggregation (%)” value came to 49.84%. At Aβ1-42 [3] (50 μM compound), the amyloid disaggregation effect was at least 35% and the “degree of Aβ aggregation compared to the control” value is given as at most 65%. Moreover, at Aβ1-42 [3] (500 μM compound), the amyloid disaggregation effect is listed as at least 75% and the “degree of Aβ aggregation compared to the control” value is on record as at most 25%. Besides, at Aβ42, the “Aβ disaggregation (bands of aggregated Aβ fibrils and dimers)” value is “concentration-dependent Aβ disaggregation activity”. In addition, in the assay with 5× FAD mice, the number of plaques result is “reduced” and the “total areas of plaques” value is on record as “reduced”.
